Source: US20060148732A1, “Inhibition of NF-kappaB by triterpene compositions” (priority 2000, published 2006)

Experiments:
[1] = Stability in solution during purification; format: physicochemical; settings: dilute acid solutions vs water at 40° C.
Source text: The fraction D (45% D1) from the PFP Prep column was first fractionated on a Waters C-18 column (25×100 mm). The mobile phase was 61% methanol in water with 0.1% TFA. […] A sample of D1 with 100% chromatographic purity (FIG. 35) was produced by further fractionation of the impure D1 on YMC C18-Aq column with 33% acetonitrile/water with 0.1% TFA as the mobile phase. […] Therefore, 0.1% TFA was included in solvents during the purification of D1.

[2] = system: p65 subunit of NF-κB in Jurkat cells; experiment: Western blot of nuclear translocation of p65; format: cell-based, human; settings: 2 μg/ml 16 hours, TNF 1 nM
Procedure: (§1) Western Blot Analysis. Cytoplasmic and nuclear extracts of Jurkat cells treated with monoterpene/triterpene glycoside G1 were used to study the degradation of IκB and nuclear translocation of the p65 subunit of NF-κB respectively. Then, 50 μg of the cytoplasmic or nuclear protein were resolved on a 9% SDS-polyacrylamide gel and electrotransferred onto a nitrocellulose membrane. The membranes were probed with rabbit anti-IκBα or rabbit anti-p65 antibody (Santa Cruz, Calif.) followed with anti-rabbit antibody conjugated to horseradish peroxidase (HRPO). Protein bands were detected by chemiluminescence (ECL, Amersham).

[3] = system: pGL3-NF-κB in Jurkat cells; experiment: NF-κB dependent luciferase gene expression; format: cell-based, human; settings: transfected Jurkat; pretreatment
Procedure: Transfection and Assay of Luciferase Activity. Jurkat cells were transfected with pGL3-NF-κB by electroporation. The cells were then treated with monoterpene/triterpene glycoside G1 (1 μg/ml) for 16 h. NF-κB was activated using LPS (100 ng/ml), PMA (5 ng/ml), or TNF (1 nM). Luciferase activity was measured using the luciferase assay kit (Promega, Madison, Wis.) as per the manufacturer's instructions.

[4] = system: mitochondrial fraction of Jurkat cells; experiment: Cytochrome c release in a cell free system; format: biochemical, human; settings: isolated mitochondria
Procedure: Isolation of the Submitochondrial Fraction. Jurkat cells (1.5-2.0×10^7) were suspended in 1 ml sucrose buffer (250 mM sucrose in 30 mM Tris-HCl pH 7.4) and transferred into an N2 cavitation chamber (PARR Instruments Company, Moline, Ill.). The cells were subjected to N2 cavitation (300 psi for 5 min) as per the manufacturer's instructions. Under these conditions most of the cell membrane was disrupted with no change in the mitochondrial respiratory activity. Next, DNA and the nuclear fraction were removed by centrifugation (1500 g, 30 sec). The supernatant was further centrifuged (16000 g, 10 min) and the pellet was used as the submitochondrial fraction.
To observe if monoterpene/triterpenoid saponins directly affected mitochondria to induce apoptosis, experiments were carried out using avicin G in a cell free system. Mitochondria were isolated from Jurkat cells by the N2 cavitation method.

iNOS in RAW 264.7 cells = experiment: LPS-induced iNOS expression (western blot); format: cell-based; settings: RAW264.7; 2 μg/ml 16 h; LPS 100 ng/ml
Procedure: (§2) Induction and Measurement of iNOS and COX-2. RAW 264.7 cells (0.5×10^6/ml) were plated in 100 mm dishes and treated with F094 or monoterpene/triterpene glycosides (2 μg/ml) for 16 h. Next, the cells were exposed to 100 ng/ml of LPS for 24 h. Cells were lysed in a buffer containing 50 mM Tris, pH 7.4, 100 mM NaCl, 0.5% NP-40, 10 μg/ml leupeptin, 5 μg/ml aprotinin, and 100 μM PMSF. 70 μg of cellular protein were then loaded on a 7.5% SDS-polyacrylamide gel and electrotransferred onto a nitrocellulose membrane. Levels of iNOS and COX-2 were analyzed by Western blot analysis using rabbit anti-iNOS (Santa Cruz) and goat anti-COX-2 antibodies respectively.

IκBα in Jurkat cells = experiment: Western blot of IκBα degradation; format: cell-based, human; settings: 2 μg/ml 16 hours, TNF 1 nM
Procedure: as §1

COX-2 in RAW 264.7 cells = experiment: LPS-induced COX-2 expression (western blot); format: cell-based; settings: RAW264.7; 2 μg/ml 16 h; LPS 100 ng/ml
Procedure: as §2

SMILES: C=C[C@](C)(O)CC/C=C(\CO)C(=O)O[C@H]1[C@H](O)[C@@H](O)[C@H](O[C@@](C)(C=C)CC/C=C(\CO)C(=O)O[C@H]2C[C@]3(C(=O)O[C@@H]4O[C@H](CO)[C@@H](O)[C@H](O)[C@H]4O[C@@H]4O[C@@H](C)[C@H](O[C@@H]5O[C@@H](CO)[C@H](O)[C@H]5O)[C@@H](O[C@@H]5O[C@H](CO)[C@@H](O)[C@H](O)[C@H]5O)[C@H]4O)[C@H](O)C[C@]4(C)C(=CC[C@@H]5[C@@]6(C)CC[C@H](O[C@@H]7O[C@H](CO[C@@H]8O[C@H](C)[C@H](O)[C@H](O)[C@H]8O[C@@H]8OC[C@@H](O)[C@H](O)[C@H]8O)[C@@H](O)[C@H](O)[C@H]7NC(C)=O)C(C)(C)[C@@H]6CC[C@]54C)[C@@H]3CC2(C)C)O[C@@H]1C [Fraction D1]
- stability in solution [1]: more stable in dilute acid solutions than in water

SMILES: C=C[C@](C)(O)CC/C=C(\C)C(=O)O[C@H]1[C@H](O)[C@@H](O)[C@H](O[C@@](C)(C=C)CC/C=C(\CO)C(=O)O[C@H]2C[C@]3(C(=O)O[C@@H]4O[C@H](CO)[C@@H](O)[C@H](O)[C@H]4O[C@@H]4O[C@@H](C)[C@H](O[C@@H]5O[C@@H](CO)[C@H](O)[C@H]5O)[C@@H](O[C@@H]5O[C@H](CO)[C@@H](O)[C@H](O)[C@H]5O)[C@H]4O)[C@H](O)C[C@]4(C)C(=CC[C@@H]5[C@@]6(C)CC[C@H](O[C@@H]7O[C@H](CO[C@@H]8O[C@H](C)[C@H](O)[C@H](O)[C@H]8O[C@@H]8OC[C@@H](O)[C@H](O)[C@H]8O)[C@@H](O)[C@H](O)[C@H]7NC(C)=O)C(C)(C)[C@@H]6CC[C@]54C)[C@@H]3CC2(C)C)O[C@@H]1C [Fraction G1]
- nuclear translocation of p65 subunit [2]: slows down nuclear translocation of the p65 subunit considerably
- luciferase activity induced by LPS, PMA or TNF [3]: significantly inhibited
- peak of cytochrome c release ([4]; 2 μg/ml): 5 to 10 min
- start of cytochrome c release ([4]; 2 μg/ml): a minute
- concentration achieving most of the cytochrome c release ([4]; 10 min): 0.5 to 2.0 µg/mL
- levels of LPS-induced iNOS (iNOS in RAW 264.7 cells): decreases the levels of LPS-induced iNOS and COX-2 sharply
- pattern of IκB degradation (IκBα in Jurkat cells): no difference
- levels of LPS-induced COX-2 (COX-2 in RAW 264.7 cells): decreases the levels of LPS-induced iNOS and COX-2 sharply
